ChEMBL document CHEMBL1201862, “PubChem BioAssay data set” (2004)
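Following 48 hours of exposure in 96-well plates, responses at five concentrations were used to interpolate endpoints linearly. Here, GI50 denotes the concentration required for 50% inhibition of growth.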 Active and inactive are the calls of the source. Rule as the data show it: active = GI50 up to about 1.1 µM and inactive = higher.

Tests used:
Test in all cases: DTP human tumour cell line panel, 48 h
NCI/ADR-RES = tested on: NCI/ADR-RES
NCI-H460 = tested on: NCI-H460
LOX IMVI = tested on: LOX IMVI
SW-620 = tested on: SW-620
IGROV-1 = tested on: IGROV-1
ACHN = tested on: ACHN
OVCAR-4 = tested on: OVCAR-4
T47D = tested on: T47D
A549 = tested on: A549
DU-145 = tested on: DU-145
SF-268 = tested on: SF-268
MDA-MB-231 = tested on: MDA-MB-231
BT-549 = tested on: BT-549
SR = tested on: SR
NCI-H522 = tested on: NCI-H522
CAKI-1 = tested on: CAKI-1
EKVX = tested on: EKVX
U-251 = tested on: U-251
HOP-62 = tested on: HOP-62
RPMI-8226 = tested on: RPMI-8226

Row | SMILES | GI50 (NCI/ADR-RES) | GI50 (NCI-H460) | GI50 (LOX IMVI) | GI50 (SW-620) | GI50 (IGROV-1) | GI50 (ACHN) | GI50 (OVCAR-4) | GI50 (T47D) | GI50 (A549) | GI50 (DU-145) | GI50 (SF-268) | GI50 (MDA-MB-231) | GI50 (BT-549) | GI50 (SR) | GI50 (NCI-H522) | GI50 (CAKI-1) | GI50 (EKVX) | GI50 (U-251) | GI50 (HOP-62) | GI50 (RPMI-8226)
1 | CN(C)CCOC1(CC2CCCCC2)CCC(C(C)(C)C)CC1 (stereo not given) | 9.62 µM (inactive) | 3.67 µM (inactive) | 2.73 µM (inactive) | 4.12 µM (inactive) | 8.71 µM (inactive) | 7.57 µM (inactive) | 6.61 µM (inactive) | 3.34 µM (inactive) | 5.56 µM (inactive) | 7.01 µM (inactive) | 10.5 µM (inactive) | 4.18 µM (inactive) | 6.19 µM (inactive) | 1.69 µM (inactive) | 1.56 µM (inactive) | 6.62 µM (inactive) | 8.07 µM (inactive) | 4.74 µM (inactive) | 4.04 µM (inactive) | 2.02 µM (inactive)
2 | Cc1nnc(N)nc1/C=C\c1ccc(Cl)cc1Cl | > 100 µM (inactive) | 19.9 µM (inactive) | 40.2 µM (inactive) | 22 µM (inactive) | 16.3 µM (inactive) | 36.4 µM (inactive) | 34.5 µM (inactive) | 55.3 µM (inactive) | 39.2 µM (inactive) | 72.8 µM (inactive) | 34.8 µM (inactive) | 87.5 µM (inactive) | 72.3 µM (inactive) | 46.6 µM (inactive) | 24.2 µM (inactive) | > 100 µM (inactive) | 39.5 µM (inactive) | 34.8 µM (inactive) | 20.3 µM (inactive) | 45.4 µM (inactive)
3 | COc1ccc2c(c1)-c1c(c3ccccc3n1CCN1CCOCC1)CC2 | 11.7 µM (inactive) | 16.8 µM (inactive) | 16.6 µM (inactive) | 32.1 µM (inactive) | 5.47 µM (inactive) | 35.7 µM (inactive) | 56.6 µM (inactive) | 21.5 µM (inactive) | 27.1 µM (inactive) | 58.9 µM (inactive) | 19 µM (inactive) | 18.9 µM (inactive) | 23 µM (inactive) | 19.1 µM (inactive) | 15.3 µM (inactive) | 17.5 µM (inactive) | 16.4 µM (inactive) | 26 µM (inactive) | 20.1 µM (inactive) | 19.4 µM (inactive)
4 | Cc1ccc2c(c1C)-c1c(ccc(C)c1C)C(=O)C2=O | 0.151 µM (active) | 0.966 µM (active) | 0.304 µM (active) | 0.378 µM (active) | 0.357 µM (active) | 0.625 µM (active) | 0.0459 µM (active) | 1.81 µM (inactive) | 0.887 µM (active) | 1.14 µM (inactive) | 0.385 µM (active) | 1.62 µM (inactive) | 0.335 µM (active) | 0.107 µM (active) | 0.148 µM (active) | 0.662 µM (active) | 2.13 µM (inactive) | 0.432 µM (active) | 1.39 µM (inactive) | 0.193 µM (active)
5 | COc1ccc(CSCc2cc(OC)c(OC)c(OC)c2)cc1 | > 31.6 µM (inactive) | > 100 µM (inactive) | 28.4 µM (inactive) | > 83.2 µM (inactive) | > 100 µM (inactive) | > 100 µM (inactive) | > 100 µM (inactive) | 8 µM (inactive) | > 100 µM (inactive) | > 100 µM (inactive) | > 100 µM (inactive) | > 100 µM (inactive) | > 84.5 µM (inactive) | > 100 µM (inactive) | > 100 µM (inactive) | > 100 µM (inactive) | > 31.6 µM (inactive) | > 100 µM (inactive) | > 100 µM (inactive) | > 55 µM (inactive)
6 | C[C@]12[C@@H]3CC[C@H]1[C@@H](OC(=O)Nc1cc([N+](=O)[O-])cc([N+](=O)[O-])c1)C(=O)N2CC3 | > 100 µM (inactive) | > 100 µM (inactive) | > 100 µM (inactive) | > 100 µM (inactive) | > 100 µM (inactive) | > 100 µM (inactive) | > 100 µM (inactive) | > 100 µM (inactive) | > 100 µM (inactive) | > 100 µM (inactive) | > 100 µM (inactive) | > 100 µM (inactive) | > 100 µM (inactive) | > 100 µM (inactive) | > 100 µM (inactive) | > 100 µM (inactive) | > 100 µM (inactive) | > 100 µM (inactive) | > 100 µM (inactive) | > 100 µM (inactive)
7 | CCCOC(=O)NC(C)C(=O)NC(CCC(=O)NC(CCCC(N)C(=O)O)C(=O)NC(C)C(=O)O)C(=O)O (stereo not given) | 19.2 µM (inactive) | 38.7 µM (inactive) | 16.6 µM (inactive) | 23 µM (inactive) | 62.2 µM (inactive) | 42.9 µM (inactive) | 29.4 µM (inactive) | 18.3 µM (inactive) | 74.6 µM (inactive) | 24.4 µM (inactive) | 16.7 µM (inactive) | 19.3 µM (inactive) | 20.7 µM (inactive) | 15.6 µM (inactive) | 26.8 µM (inactive) | 19.9 µM (inactive) | 49.3 µM (inactive) | 25.5 µM (inactive) | > 100 µM (inactive) | 12.3 µM (inactive)
8 | CCOC(=O)C1=C(C)N(CC(C)C)C2(O)C(OC)CC(=O)C3C(=O)N(c4ccccc4)C(=O)C132 (stereo not given) | 53.8 µM (inactive) | 36.5 µM (inactive) | 31.3 µM (inactive) | 34 µM (inactive) | 20.1 µM (inactive) | 24.9 µM (inactive) | 27.7 µM (inactive) | 47 µM (inactive) | 43.4 µM (inactive) | 52 µM (inactive) | 60.1 µM (inactive) | 89.1 µM (inactive) | 40.4 µM (inactive) | 21.4 µM (inactive) | 16.5 µM (inactive) | 37 µM (inactive) | > 100 µM (inactive) | 45.4 µM (inactive) | 68.7 µM (inactive) | 33 µM (inactive)
9 | COC(=O)c1ccc(O)c2nc3c(C=O)c(O)cc(O)c3nc12 [LOMOFUNGIN] | 0.0998 µM (active) | 0.413 µM (active) | 0.269 µM (active) | 0.641 µM (active) | 0.206 µM (active) | 0.32 µM (active) | 2.76 µM (inactive) | 0.397 µM (active) | 0.396 µM (active) | 0.685 µM (active) | 0.428 µM (active) | 3.17 µM (inactive) | 0.614 µM (active) | 10.6 µM (inactive) | 0.755 µM (active) | 0.345 µM (active) | 1.36 µM (inactive) | 0.025 µM (active) | 1.36 µM (inactive) | 0.811 µM (active)
